For this assay, the system named is recombinant NL4-3 virus (Renilla luciferase in nef, Gag P373S; NLRluc) in MT-2 cells. The experiment in a line: whole plant or invertebrate. In kind it is cell-based, HIV. Particulars: Renilla, NL43, luciferase activity in cells infected for 4-5 days with NLRluc recombinants, serial dilutions of inhibitor; class symbols (key in Table 1); read-out: EC50. Put shortly: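 Cells grown in serum-supplemented RPMI were exposed to graded inhibitor concentrations during a 4-5 day infection. Antiviral effect was then derived from luminescence after adding a combined lysis and dual-luciferase substrate mixture to each well.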

Where a name gives a salt, the structure may show the parent alone. A value given as a limit tells only on which side of the number the result lay.

A word on the EC50: it is the midpoint of the concentration-response curve.

Take `C=C(C)[C@@H]1CC[C@]2(NCCNc3ccc(S(C)(=O)=O)cn3)CC[C@]3(C)[C@H](CC[C@@H]4[C@@]5(C)CC=C(c6ccc(C(=O)O)cc6)C(C)(C)[C@@H]5CC[C@]43C)[C@@H]12` [Example 201, 4-((1R,3aS,5aR,5bR,7aR,11aS,11bR,13aR,13bR)-5a,5b,8,8,11a-pentamethyl-3a-(2-(5-(methylsulfonyl)pyridin-2-ylamino)ethylamino)-1-(prop-1-en-2-yl)-2,3,3a,4,5,5a,5b,6,7,7a,8,11,11a,11b,12,13,13a,13b-octadecahydro-1H-cyclopenta[a]chrysen-9-yl)benzoic acid]: the EC50 was less than 100 nM.

`C=C(C)[C@@H]1CC[C@]2(NC(=O)NCC3(NC(=O)OC(C)(C)C)CC3)CC[C@]3(C)[C@H](CC[C@@H]4[C@@]5(C)CC=C(c6ccc(C(=O)O)cc6)C(C)(C)[C@@H]5CC[C@]43C)[C@@H]12` [Example 2]: the EC50 was less than 100 nM.

In the case of `C=C(C)[C@@H]1CC[C@]2(NC(=O)N3CCN(CCN(C)C)CC3)CC[C@]3(C)[C@H](CC[C@@H]4[C@@]5(C)CC=C(c6ccc(C(=O)O)cc6)C(C)(C)[C@@H]5CC[C@]43C)[C@@H]12` [Example 39, 4-((1R,3aS,5aR,5bR,7aR,11aS,11bR,13aR,13bR)-3a-(4-(2-(dimethylamino)ethyl)piperazine-1-carboxamido)-5a,5b,8,8,11a-pentamethyl-1-(prop-1-en-2-yl)-2,3,3a,4,5,5a,5b,6,7,7a,8,11,11a,11b,12,13,13a,13b-octadecahydro-1H-cyclopenta[a]chrysen-9-yl)benzoic acid], the EC50 was less than 100 nM.

On to `C=C(C)[C@@H]1CC[C@]2(NC(=O)Cc3cccnc3)CC[C@]3(C)[C@H](CC[C@@H]4[C@@]5(C)CC=C(c6ccc(C(=O)O)cc6)C(C)(C)[C@@H]5CC[C@]43C)[C@@H]12` [Example 120, benzoic acid, 4-[(1R,3aS,5aR,5bR,7aR,11aS,11bR,13aR,13bR)-2,3,3a,4,5,5a,5b,6,7,7a,8,11,11a,11b,12,13,13a,13b-octadecahydro-5a,5b,8,8,11a-pentamethyl-1-(1-methylethenyl)-3a-[(3-pyridinylacetyl)amino]-1H-cyclopenta[a]chrysen-9-yl]], for which the EC50 is less than 100 nM.

For `C=C(C)[C@@H]1CC[C@]2(NC(=O)N3CCNCC(O)C3)CC[C@]3(C)[C@H](CC[C@@H]4[C@@]5(C)CC=C(c6ccc(C(=O)O)cc6)C(C)(C)[C@@H]5CC[C@]43C)[C@@H]12` (mixture of isomers) [Example 64, 4-((1R,3aS,5aR,5bR,7aR,11aS,11bR,13aR,13bR)-3a-(6-hydroxy-1,4-diazepane-1-carboxamido)-5a,5b,8,8,11a-pentamethyl-1-(prop-1-en-2-yl)-2,3,3a,4,5,5a,5b,6,7,7a,8,11,11a,11b,12,13,13a,13b-octadecahydro-1H-cyclopenta[a]chrysen-9-yl)benzoic acid], the EC50 was less than 100 nM.

Take `C=C(C)[C@@H]1CC[C@]2(Nc3nc(C)c(C)s3)CC[C@]3(C)[C@H](CC[C@@H]4[C@@]5(C)CC=C(c6ccc(C(=O)O)cc6)C(C)(C)[C@@H]5CC[C@]43C)[C@@H]12` [Example 183, 4-((1R,3aS,5aR,5bR,7aR,11aS,11bR,13aR,13bR)-3a-(4,5-dimethylthiazol-2-ylamino)-5a,5b,8,8,11a-pentamethyl-1-(prop-1-en-2-yl)-2,3,3a,4,5,5a,5b,6,7,7a,8,11,11a,11b,12,13,13a,13b-octadecahydro-1H-cyclopenta[a]chrysen-9-yl)benzoic acid]: the EC50 was less than 100 nM.

For the compound `C=C(C)[C@@H]1CC[C@]2(NC(=O)C(c3ccccc3)N3CCS(=O)(=O)CC3)CC[C@]3(C)[C@H](CC[C@@H]4[C@@]5(C)CC=C(c6ccc(C(=O)O)cc6)C(C)(C)[C@@H]5CC[C@]43C)[C@@H]12` (single isomer, unassigned) [Example 91], the EC50 is less than 100 nM.

Turning to `C=C(C)[C@@H]1CC[C@]2(NC(=O)N(C)CCN(C)C)CC[C@]3(C)[C@H](CC[C@@H]4[C@@]5(C)CC=C(c6ccc(C(=O)O)cc6)C(C)(C)[C@@H]5CC[C@]43C)[C@@H]12` [Example 24, 4-((1R,3aS,5aR,5bR,7aR,11aS,11bR,13aR,13bR)-3a-(3-(2-(dimethylamino)ethyl)-3-methylureido)-5a,5b,8,8,11a-pentamethyl-1-(prop-1-en-2-yl)-2,3,3a,4,5,5a,5b,6,7,7a,8,11,11a,11b,12,13,13a,13b-octadecahydro-1H-cyclopenta[a]chrysen-9-yl)benzoic acid], the EC50 was less than 100 nM.

Take `C=C(C)[C@@H]1CC[C@]2(NCCS(=O)(=O)CCO)CC[C@]3(C)[C@H](CC[C@@H]4[C@@]5(C)CC=C(c6ccc(C(=O)O)cc6)C(C)(C)[C@@H]5CC[C@]43C)[C@@H]12` [Example 135, 4-((1R,3aS,5aR,5bR,7aR,11aS,11bR,13aR,13bR)-3a-(2-(2-hydroxyethylsulfonyl)ethylamino)-5a,5b,8,8,11a-pentamethyl-1-(prop-1-en-2-yl)-2,3,3a,4,5,5a,5b,6,7,7a,8,11,11a,11b,12,13,13a,13b-octadecahydro-1H-cyclopenta[a]chrysen-9-yl)benzoic acid]: the EC50 is less than 100 nM.

Turning to `C=C(C)[C@@H]1CC[C@]2(NCCN3CCS(=O)(=O)CC3)CC[C@]3(C)[C@H](CC[C@@H]4[C@@]5(C)CC=C(c6ccc(C(=O)O)c(F)c6)C(C)(C)[C@@H]5CC[C@]43C)[C@@H]12` [Example A2, benzoic acid, 4-[(1R,3aS,5aR,5bR,7aR,11aS,11bR,13aR,13bR)-3a-[[2-(1,1-dioxido-4-thiomorpholinyl)ethyl]amino]-2,3,3a,4,5,5a,5b,6,7,7a,8,11,11a,11b,12,13,13a,13b-octadecahydro-5a,5b,8,8,11a-pentamethyl-1-(1-methylethenyl)-1H-cyclopenta[a]chrysen-9-yl]-2-fluoro-, HCl], the EC50 is less than 100 nM.

`C=C(C)[C@@H]1CC[C@]2(NCCN3CCN(C(=O)C4CC4)CC3)CC[C@]3(C)[C@H](CC[C@@H]4[C@@]5(C)CC=C(c6ccc(C(=O)O)cc6)C(C)(C)[C@@H]5CC[C@]43C)[C@@H]12` [Example B62, 4-((1R,3aS,5aR,5bR,7aR,11aS,11bR,13aR,13bR)-3a-((2-(4-(cyclopropanecarbonyl)piperazin-1-yl)ethyl)amino)-5a,5b,8,8,11a-pentamethyl-1-(prop-1-en-2-yl)-2,3,3a,4,5,5a,5b,6,7,7a,8,11,11a,11b,12,13,13a,13b-octadecahydro-1H-cyclopenta[a]chrysen-9-yl)benzoic acid]: the EC50 is less than 100 nM.

Take `C=C(C)[C@@H]1CC[C@]2(NC(=O)Cc3cnccn3)CC[C@]3(C)[C@H](CC[C@@H]4[C@@]5(C)CC=C(c6ccc(C(=O)O)cc6)C(C)(C)[C@@H]5CC[C@]43C)[C@@H]12` [Example 102, 4-((1R,3aS,5aR,5bR,7aR,11aS,11bR,13aR,13bR)-5a,5b,8,8,11a-pentamethyl-1-(prop-1-en-2-yl)-3a-(2-(pyrazin-2-yl)acetamido)-2,3,3a,4,5,5a,5b,6,7,7a,8,11,11a,11b,12,13,13a,13b-octadecahydro-1H-cyclopenta[a]chrysen-9-yl)benzoic acid]: the EC50 is less than 100 nM.

As to `C=C(C)[C@@H]1CC[C@]2(NC(=O)N3CCNC(=O)C3)CC[C@]3(C)[C@H](CC[C@@H]4[C@@]5(C)CC=C(c6ccc(C(=O)O)cc6)C(C)(C)[C@@H]5CC[C@]43C)[C@@H]12` [Example 57, 4-((1R,3aS,5aR,5bR,7aR,11aS,11bR,13aR,13bR)-5a,5b,8,8,11a-pentamethyl-3a-(3-oxopiperazine-1-carboxamido)-1-(prop-1-en-2-yl)-2,3,3a,4,5,5a,5b,6,7,7a,8,11,11a,11b,12,13,13a,13b-octadecahydro-1H-cyclopenta[a]chrysen-9-yl)benzoic acid], the EC50 was less than 100 nM.

With `C=C(C)[C@@H]1CC[C@]2(NCCN3CCN(S(=O)(=O)c4ccc(OC)cc4)CC3)CC[C@]3(C)[C@H](CC[C@@H]4[C@@]5(C)CC=C(c6ccc(C(=O)O)cc6)C(C)(C)[C@@H]5CC[C@]43C)[C@@H]12` [Example B47, 4-((1R,3aS,5aR,5bR,7aR,11aS,11bR,13aR,13bR)-3a-((2-(4-((4-methoxyphenyl)sulfonyl)piperazin-1-yl)ethyl)amino)-5a,5b,8,8,11a-pentamethyl-1-(prop-1-en-2-yl)-2,3,3a,4,5,5a,5b,6,7,7a,8,11,11a,11b,12,13,13a,13b-octadecahydro-1H-cyclopenta[a]chrysen-9-yl)benzoic acid], the EC50 was less than 100 nM.

For the compound `C=C(C)[C@@H]1CC[C@]2(NC(=O)Cn3cnnn3)CC[C@]3(C)[C@H](CC[C@@H]4[C@@]5(C)CC=C(c6ccc(C(=O)O)cc6)C(C)(C)[C@@H]5CC[C@]43C)[C@@H]12` [Example 103, 4-((1R,3aS,5aR,5bR,7aR,11aS,11bR,13aR,13bR)-3a-(2-(1H-tetrazol-1-yl)acetamido)-5a,5b,8,8,11a-pentamethyl-1-(prop-1-en-2-yl)-2,3,3a,4,5,5a,5b,6,7,7a,8,11,11a,11b,12,13,13a,13b-octadecahydro-1H-cyclopenta[a]chrysen-9-yl)benzoic acid], the EC50 was less than 100 nM.

Regarding `C=C(C)[C@@H]1CC[C@]2(NCCN3CCN(S(=O)(=O)c4ccc(F)cc4)CC3)CC[C@]3(C)[C@H](CC[C@@H]4[C@@]5(C)CC=C(c6ccc(C(=O)O)cc6)C(C)(C)[C@@H]5CC[C@]43C)[C@@H]12` [Example B50, 4-((1R,3aS,5aR,5bR,7aR,11aS,11bR,13aR,13bR)-3a-((2-(4-((4-fluorophenyl)sulfonyl)piperazin-1-yl)ethyl)amino)-5a,5b,8,8,11a-pentamethyl-1-(prop-1-en-2-yl)-2,3,3a,4,5,5a,5b,6,7,7a,8,11,11a,11b,12,13,13a,13b-octadecahydro-1H-cyclopenta[a]chrysen-9-yl)benzoic acid], the EC50 was less than 100 nM.

Source of the values: patent US20140343000A1 (priority 2011, published 2014).
